Patent US4593093A, “Acyl derivatives” (priority 1980, dated 1986)
Where a name gives a salt, the structure may show the parent alone. Read-outs that look alike come from different tables or passages of the source.

Legend:
[1] = test system: Pseudomonas aeruginosa; assay: Activity in vitro: minimum inhibitory concentration; type: cell-based
[2] = test system: Streptococcus pneumoniae; assay: as above; type: cell-based
[3] = test system: Proteus rettgeri; assay: as above; type: cell-based; conditions: Providencia rettgeri
[4] = test system: Staphylococcus aureus; assay: as above; type: cell-based
[5] = test system: Citrobacter freundii; assay: as above; type: cell-based
[6] = test system: Proteus morganii; assay: as above; type: cell-based; conditions: Morganella morganii
[7] = test system: Proteus vulgaris; assay: as above; type: cell-based
[8] = test system: Streptococcus faecalis; assay: as above; type: cell-based; conditions: Enterococcus faecalis
[9] = test system: Staphylococcus epidermis; assay: as above; type: cell-based
[10] = test system: Proteus inconstans; assay: as above; type: cell-based; conditions: Providencia alcalifaciens
[11] = test system: Neisseria moningitidis; assay: Activity in vivo: survival of intraperitoneally infected mice; conditions: sc, 96 h; mice infected i.p. with Neisseria moningitidis; s.c. twice, 1 h and 4 h after infection; survival on 4th day; read-out: CD50 (dosage at which 50% of the animals survive)
Description: Groups of 5 mice are infected intraperitoneally with an aqueous suspension of various pathogens. The test substance in physiological sodium chloride solution is administered subcutaneously twice, i.e. 1 hour and 3 hours after the infection. The number of surviving animals is determined on the 4th day. Various dosages are administered and that dosage at which 50% of the experimental animals survive (CD50, mg/kg) is determined by interpolation.
**Administered subcutaneously twice: 1 hour and 4 hours after the […]

[12] = test system: Proteus mirabilis; assay: Activity in vitro: minimum inhibitory concentration; type: cell-based
[13] = test system: Enterobacter cloacae; assay: as above; type: cell-based
[14] = test system: Escherichia coli; assay: as above; type: cell-based
[15] = Toxicity, LD50; conditions: in vivo
[16] = test system: Serratia marcescens; assay: Activity in vitro: minimum inhibitory concentration; type: cell-based
[17] = test system: Enterobacter aerogenes; assay: as above; type: cell-based; conditions: Klebsiella aerogenes
[18] = test system: Klebsiella pseumoniae; assay: as above; type: cell-based
[19] = test system: Streptococcus pyogenes; assay: Activity in vivo: survival of intraperitoneally infected mice; conditions: sc, 96 h; mice infected i.p. with Streptococcus pyogenes; s.c. twice, 1 h and 3 h after infection; survival on 4th day; read-out: CD50 (dosage at which 50% of the animals survive)
Procedure, shortened: (§1)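 First, groups of five mice receive the pathogen suspension intraperitoneally. Next, test substance dissolved in saline is injected subcutaneously at 1 h and again at 3 h. Finally, surviving animals are counted on day 4 and the 50%-survival dose interpolated as CD50 (mg/kg).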

[20] = test system: Haemophilus influenzae; assay: as above; conditions: sc, 96 h; mice infected i.p. with Haemophilus influenzae; s.c. twice, 1 h and 3 h after infection; survival on 4th day; read-out: CD50 (dosage at which 50% of the animals survive)
Procedure, shortened: (§2)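 CD50 (mg/kg): interpolated dose protecting half the mice at day 4. Infection route i.p., aqueous suspension; treatment s.c. in physiological NaCl, 1 h + 3 h post-infection; n=5 per dose group.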

[21] = test system: Escherichia coli; assay: as above; conditions: sc, 96 h; mice infected i.p. with Escherichia coli; s.c. twice, 1 h and 3 h after infection; survival on 4th day; read-out: CD50 (dosage at which 50% of the animals survive)
Procedure, shortened: as §1

[22] = test system: Klebsiella pneumoniae; assay: as above; conditions: sc, 96 h; mice infected i.p. with Klebsiella pneumoniae; s.c. twice, 1 h and 3 h after infection; survival on 4th day; read-out: CD50 (dosage at which 50% of the animals survive)
Procedure, shortened: as §1

[23] = test system: Enterobacter cloacae; assay: as above; conditions: sc, 96 h; mice infected i.p. with Enterobacter cloacae; s.c. twice, 1 h and 3 h after infection; survival on 4th day; read-out: CD50 (dosage at which 50% of the animals survive)
Procedure, shortened: as §2

[24] = test system: Serratia marcescens; assay: as above; conditions: sc, 96 h, 1 h and 3 h after infection, survival on 4th day, read-out: CD50 (dosage at which 50% of the animals survive)
Procedure, shortened: as §1

[25] = test system: Streptococcus viridans; assay: Activity in vitro: minimum inhibitory concentration; type: cell-based
[26] = test system: Pseudomonas aeruginosa; assay: Activity in vivo: survival of intraperitoneally infected mice; conditions: sc, 96 h; mice infected i.p. with Pseudomonas aeruginosa; s.c. three times, 1 h, 3 h and 5 h after infection; survival on 4th day; read-out: CD50 (dosage at which 50% of the animals survive)
Procedure, shortened: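 Mice (5/group) infected intraperitoneally, then given compound in physiological saline subcutaneously at 1 and 3 h post-infection (in some cases three times, at 1, 3 and 5 h). Survivors counted on day 4; CD50 (mg/kg), the dose giving 50% survival, interpolated from several dosages.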

[27] = test system: Streptococcus pyogenes; assay: Activity in vitro: minimum inhibitory concentration; type: cell-based
[28] = test system: Staphylococcus aureus; assay: Activity in vivo: survival of intraperitoneally infected mice; conditions: sc, 96 h; mice infected i.p. with Staphylococcus aureus; s.c. twice, 1 h and 3 h after infection; survival on 4th day; read-out: CD50 (dosage at which 50% of the animals survive)
Procedure, shortened: as §2

[29] = Pseudomonas aeruginosa strain 1
[30] = Pseudomonas aeruginosa strain 3
[31] = Streptococcus faecalis strain 1
[32] = Streptococcus faecalis strain 2
[33] = Enterobacter aerogenes strain 1
[34] = Enterobacter aerogenes strain 2
[35] = mice infected i.p. with Serratia marcescens strain 1, s.c. twice
[36] = Streptococcus pyogenes strain 1, read-out: Minimum inhibitory concentration
[37] = Streptococcus pyogenes strain 2, read-out: Minimum inhibitory concentration

SMILES: CO/N=C(\C(=O)N[C@@H]1C(=O)N2C(C(=O)O)=C(CSc3nc(=O)c(O)nn3C)CS[C@H]12)c1c[se]c(N)n1 [Product C, (6R, 7R)-7-[2-(2-amino-4-selenazolyl)-2-[(Z)-methoxyimino]-acetamido]-3-[[(2,5-dihydro-6-hydroxy-2-methyl-5-oxo-as-triazin-3-yl)thio]methyl]-8-oxo-5-thia-1-azabicyclo[4.2.0]oct-2-ene-2-carboxylic acid disodium salt]
- MIC [1, 29]: 3.1 µg/mL
- MIC ([1]; Pseudomonas aeruginosa strain 2): 6.3 µg/mL
- MIC [1, 30]: 1.6 µg/mL
- MIC [2]: 0.05 µg/mL
- MIC [3]: 0.1 µg/mL
- MIC ([4]; Staphylococcus aureus strain 1): 3.1 µg/mL
- MIC ([4]; Staphylococcus aureus strain 2): 6.3 µg/mL
- MIC ([4]; Staphylococcus aureus strain 3): 3.1 µg/mL
- MIC ([4]; Staphylococcus aureus strain 4): 6.3 µg/mL
- MIC ([5]; Citrobacter freundii strain 1): 12.5 µg/mL
- MIC ([5]; Citrobacter freundii strain 2): 0.1 µg/mL
- MIC [6]: 0.05 µg/mL
- MIC [7]: 1.6 µg/mL
- MIC [8, 31]: > 100 µg/mL
- MIC [8, 32]: > 100 µg/mL
- MIC [9]: 3.1 µg/mL
- MIC [10]: 0.006 µg/mL
- ED50 [11]: < 0.05 mg/kg
- MIC ([12]; Proteus mirabilis strain 1): 0.012 µg/mL
- MIC ([12]; Proteus mirabilis strain 2): 0.025 µg/mL
- MIC ([12]; Proteus mirabilis strain 3): 1.6 µg/mL
- MIC ([12]; Proteus mirabilis strain 4): 0.012 µg/mL
- MIC ([12]; Proteus mirabilis strain 5): 0.012 µg/mL
- MIC ([13]; Enterobacter cloacae strain 1): > 100 µg/mL
- MIC ([13]; Enterobacter cloacae strain 2): 3.1 µg/mL
- MIC ([13]; Enterobacter cloacae strain 3): > 100 µg/mL
- MIC ([14]; Escherichia coli strain 1): 0.1 µg/mL
- MIC ([14]; Escherichia coli strain 2): 0.05 µg/mL
- MIC ([14]; Escherichia coli strain 3): 0.8 µg/mL
- MIC ([14]; Escherichia coli strain 4): 0.4 µg/mL
- MIC ([14]; Escherichia coli strain 5): 0.2 µg/mL
- LD50 ([15]; po): > 5000 mg/kg
- LD50 ([15]; sc): > 4000 mg/kg
- MIC ([16]; Serratia marcescens strain 1): 0.4 µg/mL
- MIC ([16]; Serratia marcescens strain 2): 1.6 µg/mL
- MIC ([16]; Serratia marcescens strain 3): 0.1 µg/mL
- MIC [17, 33]: 0.1 µg/mL
- MIC [17, 34]: 0.1 µg/mL
- MIC ([18]; Klebsiella pseumoniae strain 1): 0.1 µg/mL
- MIC ([18]; Klebsiella pseumoniae strain 2): 0.05 µg/mL
- MIC ([18]; Klebsiella pseumoniae strain 3): 0.1 µg/mL
- ED50 [19]: 0.04 mg/kg
- ED50 [20]: < 0.05 mg/kg
- ED50 [21]: < 0.003 mg/kg
- ED50 [22]: 0.23 mg/kg
- ED50 [23]: 17 mg/kg
- ED50 [24, 35]: 0.07 mg/kg
- MIC [25]: 3.1 µg/mL
- ED50 [26]: 14 mg/kg
- MIC [27, 36]: 0.05 µg/mL
- MIC [27, 37]: ≤ 0.012 µg/mL

SMILES: CO/N=C(\C(=O)N[C@@H]1C(=O)N2C(C(=O)OCOC(=O)C(C)(C)C)=C(C)CS[C@H]12)c1c[se]c(N)n1 [Product H, Methylene (6R, 7R)-7-[2-(2-amino-4-selenazolyl)-2-[(Z)-methoxyimino]-acetamido]-3-methyl-8-oxo-5-thia-1-azabicyclo[4.2.0]oct-2-ene-2-carboxylate pivalate]
- LD50 ([15]; po): > 5000 mg/kg
- ED50 [28]: > 12 mg/kg
- ED50 [19]: 0.13 mg/kg
- ED50 [21]: 0.11 mg/kg
- ED50 [22]: 0.44 mg/kg
- ED50 [26]: > 100 mg/kg

SMILES: CC1=C(C(=O)[O-])N2C(=O)[C@@H](NC(=O)/C(=N\O)c3c[se]c(N)n3)[C@H]2SC1.[Na+] [Product M, (6R, 7R)-7-[2-[2-amino-4-selenazolyl]-2-[(Z)-hydroxyimino]-acetamido]-3-methyl-8-oxo-5-thia-1-azabicyclo[4.2.0]oct-2-ene-2-carboxylic acid sodium salt]
- MIC [1, 29]: > 400 µg/mL
- MIC [1, 30]: > 400 µg/mL
- MIC [2]: 6.3 µg/mL
- MIC [3]: 0.2 µg/mL
- MIC ([4]; Staphylococcus aureus strain 1): 3.1 µg/mL
- MIC ([4]; Staphylococcus aureus strain 2): 6.3 µg/mL
- MIC ([4]; Staphylococcus aureus strain 3): 3.1 µg/mL
- MIC ([4]; Staphylococcus aureus strain 4): 6.3 µg/mL
- MIC ([5]; Citrobacter freundii strain 1): 100 µg/mL
- MIC ([5]; Citrobacter freundii strain 2): 1.6 µg/mL
- MIC [6]: 100 µg/mL
- MIC [8, 31]: 200 µg/mL
- MIC [8, 32]: > 200 µg/mL
- MIC [9]: 3.1 µg/mL
- MIC [10]: 0.05 µg/mL
- MIC ([12]; Proteus mirabilis strain 3): 0.8 µg/mL
- MIC ([12]; Proteus mirabilis strain 4): 6.3 µg/mL
- MIC ([12]; Proteus mirabilis strain 5): 1.6 µg/mL
- MIC ([13]; Enterobacter cloacae strain 1): > 200 µg/mL
- MIC ([13]; Enterobacter cloacae strain 2): > 200 µg/mL
- MIC ([13]; Enterobacter cloacae strain 3): > 200 µg/mL
- MIC ([14]; Escherichia coli strain 1): 0.8 µg/mL
- MIC ([14]; Escherichia coli strain 2): 0.4 µg/mL
- MIC ([14]; Escherichia coli strain 3): 50 µg/mL
- MIC ([14]; Escherichia coli strain 4): 200 µg/mL
- MIC ([14]; Escherichia coli strain 5): 3.1 µg/mL
- MIC ([16]; Serratia marcescens strain 1): 25 µg/mL
- MIC ([16]; Serratia marcescens strain 2): 100 µg/mL
- MIC ([16]; Serratia marcescens strain 3): 6.3 µg/mL
- MIC [17, 33]: 0.4 µg/mL
- MIC [17, 34]: 1.6 µg/mL
- MIC ([18]; Klebsiella pseumoniae strain 1): 0.8 µg/mL
- MIC ([18]; Klebsiella pseumoniae strain 2): 0.4 µg/mL
- MIC ([18]; Klebsiella pseumoniae strain 3): 0.4 µg/mL
- ED50 [28]: 2.7 mg/kg
- ED50 [19]: 0.28 mg/kg
- ED50 [21]: 1 mg/kg
- ED50 [24, 35]: 3.5 mg/kg
- ED50 ([24]; mice infected i.p. with Serratia marcescens strain 2, s.c. twice): > 50 mg/kg
- MIC [25]: 25 µg/mL
- MIC [27, 36]: 1.6 µg/mL
- MIC [27, 37]: 0.1 µg/mL
